“Also recorded” adds a separate entry of the source. Read-outs that look alike come from different tables or passages of the source.

The test concerns the target T1, human CD39 (Homo sapiens, UniProt P49961).
T1 sequence (P49961 1-510): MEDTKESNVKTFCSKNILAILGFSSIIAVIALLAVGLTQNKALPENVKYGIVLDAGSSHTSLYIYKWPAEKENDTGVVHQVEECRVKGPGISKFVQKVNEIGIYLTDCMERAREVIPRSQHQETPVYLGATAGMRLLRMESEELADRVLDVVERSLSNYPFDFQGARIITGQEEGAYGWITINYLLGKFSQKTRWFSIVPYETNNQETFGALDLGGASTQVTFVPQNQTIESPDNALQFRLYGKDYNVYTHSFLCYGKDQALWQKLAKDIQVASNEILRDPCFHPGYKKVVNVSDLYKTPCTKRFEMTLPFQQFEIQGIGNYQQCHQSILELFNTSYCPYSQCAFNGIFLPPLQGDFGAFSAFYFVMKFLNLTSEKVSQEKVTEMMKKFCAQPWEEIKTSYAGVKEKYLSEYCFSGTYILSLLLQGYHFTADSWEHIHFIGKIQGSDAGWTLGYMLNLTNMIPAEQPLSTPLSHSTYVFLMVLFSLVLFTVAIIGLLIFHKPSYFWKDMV
Description: Fluorescence capillary electrophoresis assay for CD39. Type of test: biochemical. Details: Human umbilical cord membrane preparations (250 ng) natively expressing high amounts of CD39; from tissue; host or cells: human umbilical cord membranes. The settings on record: for Ki: human umbilical cord membrane preparation, n = 3, Cheng-Prusoff; for inhibition at 10 µM: read-out: % inhibition at 10 µM; for CD39 inhibition (in words) / IC50 (in words): human CD39. On the procedure: They were minced and homogenized with a polytron in 95 mM NaCl, 0.1 mM phenylmethylsulfonyl fluoride (PMSF), and 45 mM Tris solution, pH 7.6. […] The pellets were resuspended in 5 mM Tris buffer solution, pH 8.0 and 10% glycerol. All purification steps were performed at 4°C. The preparations were kept at −80°C.
For inhibition screening, three independent experiments were performed. […] The reaction buffer contained 10 mM HEPES, 2 mM CaCl2, 1 mM MgCl2, pH 7.4. The samples were incubated at 37°C for 4 min, and the enzymatic reaction was terminated by heating at 90°C for 5 min. The solution was then diluted 1:20 with reaction buffer to perform separation of nucleotides by capillary electrophoresis (CE) followed by laser-induced fluorescence (LIF) detection. […] Three independent experiments were performed, and curves were calculated by GraphPad Prism 8 software (GraphPad software, San Diego, CA, USA).
Analysis was carried out using a P/ACE MDQ capillary electrophoresis system (Beckman Instruments, Fullerton, CA, USA). The separation was performed in a polyacrylamide-coated capillary [30 cm (10 cm effective length) × 50 µm (id), × 360 µm (od)]. Before each run, the capillary was rinsed with the background electrolyte [50 mM phosphate buffer (pH 6.5)] for 1 min at 30 psi. Samples were electrokinetically injected by applying a voltage of -6 kV for 30 s at the capillary outlet, and the fluorescent nucleotide derivatives were separated by voltage application of -15 kV. […] Data collection and peak area analysis were performed by the P/ACE MDQ software 32 KARAT obtained from Beckman Coulter (Fullerton, CA, USA).

[1] abbreviates: fluorescent substrate PSB-017621A 0.5 µM, read-out: Ki ± SEM.
[2] abbreviates: screening at 10 µM, fluorescent substrate PSB-017621A 0.5 µM.
Where [3] appears, read: ratio of Ki values, fluorescence CE assay.

As for `CCN(CC)c1ncnc2c1nc(NC)n2[C@@H]1O[C@H](COP(=O)(O)OP(=O)(O)C(Br)(Br)P(=O)(O)O)[C@@H](O)[C@H]1O` [Compound 35, (Dibromo((((((2R,3S,4R,5R)-5-(6-(diethylamino)-8-(methylamino)-9H-purin-9-yl)-3,4-di-hydroxytetrahydrofuran-2-yl)methoxy)(hydroxy)phosphoryl)-oxy)(hydroxy)phosphoryl)methyl)phosphonic Acid], under setting [1], the inhibitory constant (Ki) (usually the dissociation constant of the complex between target and ligand, obtained from inhibition or displacement) is around 10 µM. Under setting [2], the inhibition (usually the percentage by which the read-out fell short of the control) at 10 µM was determined as 59%. For the compound `O=P(O)(OC[C@H]1O[C@@H](n2cnc3c(NCc4ccccc4)ncnc32)[C@H](O)[C@@H]1O)OP(=O)(O)C(Br)(Br)P(=O)(O)O` [Compound 29, (((((((2R,3S,4R,5R)-5-(6-(Benzylamino)-9H-purin-9-yl)-3,4-dihydroxytetrahydrofuran-2-yl)methoxy)(hydroxy)-phosphoryl)oxy)(hydroxy)phosphoryl)dibromomethyl)-phosphonic Acid], the “CD39 inhibition (in words)” value is “abolishment of the CD39-inhibiting activity”. Besides, under setting [1], the inhibitory constant (Ki) was above 10 µM. Besides, under setting [2], the inhibition at 10 µM came to 4%. Regarding `CCCN(CCC)c1ncnc2c1ncn2[C@@H]1O[C@H](COP(=O)(O)OP(=O)(O)C(Br)(Br)P(=O)(O)O)[C@@H](O)[C@H]1O` [Compound 27, (Dibromo((((((2R,3S,4R,5R)-5-(6-(dipropylamino)-9H-purin-9-yl)-3,4-dihydroxytetrahydro-furan-2-yl)methoxy)-(hydroxy)phosphoryl)oxy)(hydroxy)phosphoryl)methyl)-phosphonic Acid], the Ki under setting [1] was found to be 2.68 ± 1.11 µM. For the compound `Nc1ncnc2c1ncn2[C@@H]1O[C@H](COP(=O)(O)CP(=O)(O)O)[C@@H](O)[C@H]1O` [Compound 42, α,β-Methylene-ADP, reference compound], the inhibition at 10 µM worked out at 14%. Further, the Ki (Ki ± SEM, fluorescent substrate PSB-017621A 0.5 µM) was above 10 µM.

For the compound `Nc1ncnc2c1ncn2[C@@H]1O[C@H](COP(=O)(O)OP(=O)(O)CP(=O)(O)O)[C@@H](O)[C@H]1O` [Compound 43, β,γ-Methylene-ATP, reference compound], the “CD39 inhibition (in words)” value was “virtually inactive; also recorded: no significant inhibition”. Besides, the Ki under setting [1] is above 10 µM. Besides, the inhibition at 10 µM under setting [2] is 23%. Take `O=P(O)(OC[C@H]1O[C@@H](n2cnc3c(NCCc4ccccc4)ncnc32)[C@H](O)[C@@H]1O)OP(=O)(O)C(Br)(Br)P(=O)(O)O` [Compound 30, (Dibromo((((((2R,3S,4R,5R)-3,4-dihydroxy-5-(6-(phenethylamino)-9H-purin-9-yl)tetrahydrofuran-2-yl)-methoxy)(hydroxy)phosphoryl)oxy)(hydroxy)phosphoryl)-methyl)phosphonic Acid]: the Ki under setting [1] is 4.82 ± 0.21 µM. In the case of `CCN(C)c1ncnc2c1ncn2[C@@H]1O[C@H](COP(=O)(O)OP(=O)(O)C(Br)(Br)P(=O)(O)O)[C@@H](O)[C@H]1O` [Compound 25, (Dibromo((((((2R,3S,4R,5R)-5-(6-(ethyl(methyl)amino)-9H-purin-9-yl)-3,4-dihydroxytetra-hydrofuran-2-yl)methoxy)-(hydroxy)phosphoryl)oxy)(hydroxy)phosphoryl)methyl)-phosphonic Acid], the Ki under setting [1] was determined as 6.48 ± 2.6 µM. In addition, under setting [3], the “fold decrease in CD39 potency compared to I” value (from here on “fold decrease in CD39 potency”) was “about 7 fold”. Turning to `Nc1ncnc2c1ncn2[C@@H]1O[C@H](COP(=O)(O)OP(=O)(O)C(Br)(Br)P(=O)(O)O)[C@@H](O)[C@H]1O` [Compound 38, (((((((2R,3S,4R,5R)-5-(6-amino-9H-purin-9-yl)-3,4-dihydroxytetrahydrofuran-2-yl)methoxy)-(hydroxy)-phosphoryl)oxy)(hydroxy)phosphoryl)dibromomethyl)-phosphonic Acid], the “IC50 (in words)” value is “low micromolar range”. The inhibitory constant (Ki) under setting [1] is 5.26 ± 0.22 µM. Also, the “fold decrease in CD39 potency” value under setting [3] is recorded as “about 5 fold”. For `CCCCSc1nc2c(NC)ncnc2n1[C@@H]1O[C@H](COP(=O)(O)OP(=O)(O)C(Br)(Br)P(=O)(O)O)[C@@H](O)[C@H]1O` [Compound 36, (Dibromo((((((2R,3S,4R,5R)-5-(8-(butylthio)-6-(methylamino)-9H-purin-9-yl)-3,4-dihydroxy-tetrahydrofuran-2-yl)methoxy)(hydroxy)phosphoryl)oxy)-(hydroxy)phosphoryl)methyl)phosphonic Acid], the Ki under setting [1] was above 10 µM. For the same compound, the inhibition at 10 µM under setting [2] came to 39%. The corresponding values for `CCCCNc1nc2c(N(C)C)ncnc2n1[C@@H]1O[C@H](COP(=O)(O)OP(=O)(O)C(Br)(Br)P(=O)(O)O)[C@@H](O)[C@H]1O` [Compound 34, (Dibromo((((((2R,3S,4R,5R)-5-(8-(butylamino)-6-(dimethylamino)-9H-purin-9-yl)-3,4-di-hydroxytetrahydrofuran-2-yl)methoxy)(hydroxy)-phosphoryl)oxy)(hydroxy)phosphoryl)methyl)-phosphonic Acid] are around 10 µM and 54%. With `CCCN(C)c1ncnc2c1ncn2[C@@H]1O[C@H](COP(=O)(O)OP(=O)(O)C(Br)(Br)P(=O)(O)O)[C@@H](O)[C@H]1O` [Compound 26, (Dibromo((((((2R,3S,4R,5R)-3,4-dihydroxy-5-(6-(methyl-(propyl)amino)-9H-purin-9-yl)tetra-hydrofuran-2-yl)-methoxy)(hydroxy)phosphoryl)oxy)(hydroxy)phosphoryl)-methyl)phosphonic Acid], under setting [1], the Ki was found to be 4.04 ± 2.12 µM. Take `CN(C)c1ncnc2c1ncn2[C@@H]1O[C@H](COP(=O)(O)OP(=O)(O)C(Br)(Br)P(=O)(O)O)[C@@H](O)[C@H]1O` [Compound 24, (Dibromo((((((2R,3S,4R,5R)-5-(6-(dimethylamino)-9H-purin-9-yl)-3,4-dihydroxytetrahydro-furan-2-yl)methoxy)-(hydroxy)phosphoryl)oxy)(hydroxy)phosphoryl)methyl)-phosphonic Acid]: the Ki under setting [1] was determined as 40.1 ± 7 µM. The “fold decrease in CD39 potency” value under setting [3] is recorded as 41 fold. Take `CNc1ncnc2c1nc(NC1CC1)n2[C@@H]1O[C@H](COP(=O)(O)OP(=O)(O)C(Br)(Br)P(=O)(O)O)[C@@H](O)[C@H]1O` [Compound 32, (Dibromo((((((2R,3S,4R,5R)-5-(8-(cyclopropylamino)-6-(methylamino)-9H-purin-9-yl)-3,4-di-hydroxytetrahydrofuran-2-yl)methoxy)(hydroxy)-phosphoryl)oxy)(hydroxy)phosphoryl)methyl)phosphonic-Acid]: the Ki under setting [1] came to 5.72 ± 0.86 µM. Still for that read-out and setting: with `CCCN(CC)c1ncnc2c1ncn2[C@@H]1O[C@H](COP(=O)(O)OP(=O)(O)C(Br)(Br)P(=O)(O)O)[C@@H](O)[C@H]1O` [Compound 28, (Dibromo((((((2R,3S,4R,5R)-5-(6-(ethyl(propyl)amino)-9H-purin-9-yl)-3,4-dihydroxytetra-hydrofuran-2-yl)methoxy)-(hydroxy)phosphoryl)oxy)(hydroxy)phosphoryl)methyl)-phosphonic Acid] the figure was 2.22 ± 0.02 µM.

Regarding `Nc1ncnc2c1ncn2[C@@H]1O[C@H](COP(=O)(O)OP(=O)(O)C(Cl)(Cl)P(=O)(O)O)[C@@H](O)[C@H]1O` [Compound 39, (((((((2R,3S,4R,5R)-5-(6-Amino-9H-purin-9-yl)-3,4-dihydroxytetrahydrofuran-2-yl)methoxy)-(hydroxy)-phosphoryl)oxy)(hydroxy)phosphoryl)dichloromethyl)-phosphonic Acid], the “IC50 (in words)” value was “low micromolar range”. The Ki under setting [1] was 9.53 ± 1.46 µM. Moreover, the “fold less potent than dibromo-derivative 38 at CD39” value under setting [3] is listed as “about 2 fold”.
